# Assay results: patent US20250289789A1, “REVERSIBLE LYSINE COVALENT MODIFIERS OF CDK2 AND USES THEREOF” (Terremoto Biosciences, Inc., priority 2023, published 2025)
# “Also recorded” adds a separate entry of the source. Like-named read-outs stand apart in the source and are kept apart here.
# Legend:
# [1] = test system: Phospho-Rb Ser807/811 in OVCAR3 cells; test: OVCAR3 Phospho-Rb Ser807/811 HTRF assay; type: cell-based; conditions: Homo sapiens, OVCAR-3, 1 h, read-out: pRb-OVCAR3 IC50
# Method: Cells were trypsinized and resuspended in 1 mM hydroxyurea (Sigma; H8627), 90% RPMI and 10% fetal bovine serum. […] Dose response curve normalized to DMSO control was plotted using four-parameter logistic model for IC50 calculation.
# [2] = biological target: T1, CDK2-NanoLuc fusion with CCNE1 in 293T or 293 cells (Homo sapiens, UniProt P24941); test: NanoBRET Target Engagement (TE) Intracellular Kinase Assay, CDK2/CCNE1; type: cell-based; conditions: 2-hour incubation
# T1 construct: host or cells: 293T (ATCC CRL-3216) or 293 (ATCC CRL-1573)
# [3] = biological target: T2, CDK4-NanoLuc fusion with CCND1 in 293T or 293 cells (Homo sapiens, UniProt P11802); test: NanoBRET Target Engagement (TE) Intracellular Kinase Assay, CDK4/CCND1; type: cell-based; conditions: NanoBRET TE intracellular kinase assay, 2-hour incubation, read-out: NanoBRET-CDK4/D1 IC50
# T2 construct: host or cells: 293T (ATCC CRL-3216) or 293 (ATCC CRL-1573)
# [4] = biological target: T3, CDK1-NanoLuc fusion with CCNB1 in 293T or 293 cells (Homo sapiens, UniProt P06493); test: NanoBRET Target Engagement (TE) Intracellular Kinase Assay, CDK1/CCNB1; type: cell-based; conditions: NanoBRET TE intracellular kinase assay, 2-hour incubation, read-out: NanoBRET-CDK1/B1 IC50
# T3 construct: host or cells: 293T (ATCC CRL-3216) or 293 (ATCC CRL-1573)
# In short: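 IC50 derived by four-parameter logistic fit of DMSO-normalized acceptor/donor (610/450 nm) BRET ratio. Compound and Tracer K-10 were applied together for 2 h at 37° C to 293 or 293T cells transfected 24 h earlier with CDK1-NanoLuc fusion and cyclin B1.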
# pCDK2-CCNE1 proteins = pCDK2-CCNE1 proteins (Homo sapiens, UniProt P24941); test: Identification of covalent binding by intact mass spectrometry, with and without competitor PF-06873600; conditions: for Observed mass value of the covalent complex between compound and CDK2 protein: intact mass spectrometry after borohydride reduction, unmodified CDK2 34096-34097 Da; for Covalent complex formation with CDK2 protein (intact mass spectra after sodium borohydride reduction) / Binding pocket by competition: complex formation in presence of molar excess PF-06873600: pCDK2-CCNE1 1 μM, compound 1.5 μM; for Covalent complex formation with CDK2 protein (intact mass spectra after sodium borohydride reduction): 1 hour at room temperature or 37° C., no competitor; for Binding pocket by competition: complex formation in presence of molar excess PF-06873600: competitor PF-06873600 20 μM
# Method: pCDK2-CCNE1 proteins (1 μM) were treated with a compound (1.5 μM) from Table 4 for 1 hour at room temperature or 37° C., with and without competitor molecule PF-06873600 (20 μM final concentration) as a specificity control. As used herein, the competitor molecule is
# As used herein, the competitor molecule is 6-(difluoromethyl)-8-((1R,2R)-2-hydroxy-2-methylcyclopentyl)-2-((1-(methylsulfonyl)piperidin-4-yl)amino)pyrido[2,3-d]pyrimidin-7(8H)-one (PF-06873600). Reversible imines were captured by reductive amination with the addition of 5 mM sodium borohydride at room temperature for 5 min. Reduction reactions were quenched by diluting the sample in equal volume of 1% trifluoroacetic acid (v/v) in acetonitrile, then analyzed by LC-MS. Deconvoluted monoisotopic intensities of unmodified and compound-modified mass peaks were compared.
# FIGS. 1A to 1P provide intact mass spectra for pCDK2-CCNE1 proteins after incubation with compounds of the present disclosure and subsequent sodium borohydride reduction. […] Further, FIGS. 1A to 1P each provide intact mass spectra following the incubation of pCDK2-CCNE1 proteins with a compound of the present disclosure both in the absence of a competitor molecule (i.e., PF-06873600, a molecule known to bind to and inhibit the function of CDK2); and in the presence of a significant stoichiometric excess of a competitor molecule PF-06873600.
# FIGS. 2A to 2N provide intact mass spectra for pCDK2-CCNE1 proteins after incubation with compounds of the present disclosure and subsequent sodium borohydride reduction.
# [5] = OVCAR3 cells, Phospho-Rb Ser807/811 HTRF, 1 hour incubation
# [6] = NanoBRET TE intracellular kinase assay, read-out: NanoBRET-CDK2/E1 IC50
# [7] = NanoBRET-CDK2/E1 IC50, NanoBRET TE intracellular kinase assay
# T3 sequence (P06493 whole entry, the tested form may be a part): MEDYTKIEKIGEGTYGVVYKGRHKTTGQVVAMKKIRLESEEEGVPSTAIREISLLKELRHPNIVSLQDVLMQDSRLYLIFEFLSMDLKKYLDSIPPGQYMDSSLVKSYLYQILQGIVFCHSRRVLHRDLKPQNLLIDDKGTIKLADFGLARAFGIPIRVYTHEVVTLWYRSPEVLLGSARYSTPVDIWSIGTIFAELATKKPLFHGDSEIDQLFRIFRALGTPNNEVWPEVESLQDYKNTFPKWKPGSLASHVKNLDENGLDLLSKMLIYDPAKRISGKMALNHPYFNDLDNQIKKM
# T3 sequence (P14635 whole entry partner, the tested form may be a part): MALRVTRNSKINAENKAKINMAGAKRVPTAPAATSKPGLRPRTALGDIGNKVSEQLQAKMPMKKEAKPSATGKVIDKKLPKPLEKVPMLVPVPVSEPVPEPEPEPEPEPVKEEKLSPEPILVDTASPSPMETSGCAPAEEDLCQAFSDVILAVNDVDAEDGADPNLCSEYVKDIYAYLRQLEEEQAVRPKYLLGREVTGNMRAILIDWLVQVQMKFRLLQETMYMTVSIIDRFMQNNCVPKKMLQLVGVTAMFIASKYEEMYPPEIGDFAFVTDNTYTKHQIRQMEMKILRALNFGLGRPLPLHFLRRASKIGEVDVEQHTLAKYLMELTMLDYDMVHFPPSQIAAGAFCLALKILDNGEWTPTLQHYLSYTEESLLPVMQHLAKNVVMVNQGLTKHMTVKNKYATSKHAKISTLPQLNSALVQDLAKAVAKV
# T2 sequence (P11802 whole entry, the tested form may be a part): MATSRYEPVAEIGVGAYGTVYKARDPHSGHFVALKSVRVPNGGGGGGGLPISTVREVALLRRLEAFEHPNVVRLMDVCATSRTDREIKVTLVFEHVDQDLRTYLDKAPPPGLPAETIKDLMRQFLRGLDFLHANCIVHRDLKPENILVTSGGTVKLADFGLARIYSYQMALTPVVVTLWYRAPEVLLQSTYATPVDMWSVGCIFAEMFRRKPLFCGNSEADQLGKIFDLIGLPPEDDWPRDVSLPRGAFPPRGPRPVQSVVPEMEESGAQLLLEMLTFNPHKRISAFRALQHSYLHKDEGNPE
# T2 sequence (P24385 whole entry partner, the tested form may be a part): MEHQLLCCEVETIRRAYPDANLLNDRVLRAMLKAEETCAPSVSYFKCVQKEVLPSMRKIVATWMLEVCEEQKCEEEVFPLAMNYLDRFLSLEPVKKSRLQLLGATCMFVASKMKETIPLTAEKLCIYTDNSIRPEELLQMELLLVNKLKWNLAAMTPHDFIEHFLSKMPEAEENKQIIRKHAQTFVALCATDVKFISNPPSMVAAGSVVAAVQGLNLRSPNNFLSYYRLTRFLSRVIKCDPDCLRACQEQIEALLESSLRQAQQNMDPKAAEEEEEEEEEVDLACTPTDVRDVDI
"IC50 [1, 5] [nM]","IC50 [2, 6] [nM]",IC50 [3] [nM],IC50 [4] [nM],Observed mass value of the covalent complex between compound and CDK2 protein (pCDK2-CCNE1 proteins) [Da],Covalent complex formation with CDK2 protein (intact mass spectra after sodium borohydride reduction) (pCDK2-CCNE1 proteins),Compound,Binding pocket by competition: complex formation in presence of molar excess PF-06873600 (pCDK2-CCNE1 proteins),IC50 [1] [nM],"IC50 [2, 7] [nM]","Covalent complex formation with CDK2 protein (intact mass spectra after sodium borohydride reduction) (pCDK2-CCNE1 proteins; 2,2,2-trifluoroacetate)"
382,8.63,> 10000,49.7,,resulted in covalent complex formation,"CNC(=O)O[C@@H]1CC[C@H](c2cc(NC(=O)c3cc(-c4cccc(O)c4C=O)nn3C)n[nH]2)C1 [Compound 50, (1R,3S)-3-{5-[5-(2-formyl-3-hydroxyphenyl)-2-methylpyrazole-3-amido]-2H-pyrazol-3-yl}cyclopentyl N-methylcarbamate; trifluoroacetic acid]",,,,
,138,779,1690,,resulted in covalent complex formation,"CC(C)c1ccc(O[C@@H]2CC[C@H](c3cc(NC(=O)CCc4cccc(O)c4C=O)n[nH]3)C2)nn1 [Compound 14, 3-(2-formyl-3-hydroxyphenyl)-N-{5-[(1S,3R)-3-[(6-isopropylpyridazin-3-yl)oxy]cyclopentyl]-1H-pyrazol-3-yl}propanamide]",,,,
361,11.3,361,71.6,,resulted in covalent complex formation,"CC(C)NC(=O)O[C@@H]1CC[C@H](c2cc(NC(=O)Nc3ccc(O)c(C=O)c3)n[nH]2)C1 [Compound 33, (1R,3S)-3-(5-{[(3-formyl-4-hydroxyphenyl)carbamoyl]amino}-2H-pyrazol-3-yl)cyclopentyl N-isopropylcarbamate]",,,,
161,24.5,> 10000,70.2,34588,,"CC(C)NC(=O)O[C@@H]1CC[C@H](c2cc(NC(=O)COc3cccc(NS(C)(=O)=O)c3C=O)n[nH]2)C1 [Compound 49, (1R,3S)-3-{5-[2-(2-formyl-3-methanesulfonamidophenoxy)acetamido]-2H-pyrazol-3-yl}cyclopentyl N-isopropyl carbamate]",,,,
226,4.87,4580,16.7,34561,,"CC(C)NC(=O)O[C@@H]1CC[C@H](c2cc(NC(=O)c3cc(-c4cccc(O)c4C=O)nn3C)n[nH]2)C1 [Compound 17, (1R,3S)-3-{5-[5-(2-formyl-3-hydroxyphenyl)-2-methylpyrazole-3-amido]-2H-pyrazol-3-yl}cyclopentyl N-isopropylcarbamate 2,2,2-trifluoroacetate]",bound to the same binding pocket of CDK2 as the competitor molecule PF-06873600,,,formed a covalent complex with CDK2 protein; also recorded: resulted in covalent complex formation
2430,21.7,543,383,,resulted in covalent complex formation,"C#Cc1cccc(-c2cc(C(=O)Nc3cc([C@H]4CC[C@@H](OC(=O)NC(C)C)C4)[nH]n3)n(C)n2)c1C=O [Compound 52, (1R,3S)-3-(3-(3-(3-ethynyl-2-formylphenyl)-1-methyl-1H-pyrazole-5-carboxamido)-1H-pyrazol-5-yl)cyclopentyl isopropylcarbamate]",,,,
4640,11.4,1610,703,,resulted in covalent complex formation,"CC(C)NC(=O)O[C@@H]1CC[C@H](c2cc(NC(=O)c3cc(-c4cccc(C=O)c4O)nn3C)n[nH]2)C1 [Compound 18, (1R,3S)-3-{5-[5-(3-formyl-2-hydroxyphenyl)-2-methylpyrazole-3-amido]-2H-pyrazol-3-yl}cyclopentyl N-isopropylcarbamate trifluoroacetic acid]",,,,
44.7,2.27,1280,11.3,34550,resulted in covalent complex formation,"COc1cc(O)c(C=O)c([C@@H]2C[C@H]2C(=O)Nc2cc([C@H]3CC[C@@H](OC(=O)NC(C)C)C3)[nH]n2)c1 (mixture of isomers) [Compound 89, (1R,3S)-3-{5-[trans-2-(2-formyl-3-hydroxy-5-methoxyphenyl)cyclopropaneamido]-2H-pyrazol-3-yl}cyclopentyl N-isopropylcarbamate]",,,,
,10.9,969,125,,resulted in covalent complex formation,"CC1(NC(=O)O[C@@H]2CC[C@H](c3cc(NC(=O)CCc4cccc(O)c4C=O)n[nH]3)C2)CC1 [Compound 23, (1R,3S)-3-(3-(3-(2-formyl-3-hydroxyphenyl)propanamido)-1H-pyrazol-5-yl)cyclopentyl (1-methylcyclopropyl)carbamate trifluoroacetic acid]",,,,
344,15.6,128,176,,,"CC(=O)Nc1cc(C(=O)Nc2cc([C@H]3CC[C@@H](OC(=O)NC(C)C)C3)[nH]n2)ccc1C=O [Compound 37, (1R,3S)-3-(3-(3-acetamido-4-formylbenzamido)-1H-pyrazol-5-yl)cyclopentyl isopropylcarbamate]",,,,
66.9,5.05,> 10000,13.1,,,COc1cc(O)c(C=O)c(OCC(=O)Nc2cc([C@H]3CC[C@@H](OC(=O)N4CC[C@H](OC)C4)C3)[nH]n2)c1 [Compound 242],,,,

Compound,"IC50 [1, 5] [nM]","IC50 [2, 6] [nM]",IC50 [3] [nM],IC50 [4] [nM],Observed mass value of the covalent complex between compound and CDK2 protein (pCDK2-CCNE1 proteins) [Da],Covalent complex formation with CDK2 protein (intact mass spectra after sodium borohydride reduction) (pCDK2-CCNE1 proteins),Binding pocket by competition: complex formation in presence of molar excess PF-06873600 (pCDK2-CCNE1 proteins),IC50 [1] [nM],"IC50 [2, 7] [nM]","Covalent complex formation with CDK2 protein (intact mass spectra after sodium borohydride reduction) (pCDK2-CCNE1 proteins; 2,2,2-trifluoroacetate)"
"CC(C)NC(=O)O[C@@H]1CC[C@H](c2cc(NC(=O)COc3cccc(O)c3C=O)n[nH]2)C1 [Compound 11, (1R,3S)-3-{5-[2-(2-formyl-3-hydroxyphenoxy)acetamido]-2H-pyrazol-3-yl}cyclopentyl N-isopropylcarbamate]",102,3.72,> 9900,17.3,34511,formed a covalent complex with CDK2 protein; also recorded: resulted in covalent complex formation,bound to the same binding pocket of CDK2 as the competitor molecule PF-06873600,,,
"CC(C)NC(=O)O[C@@H]1CC[C@H](c2cc(NC(=O)Cc3cnn(-c4cccc(O)c4C=O)c3)n[nH]2)C1 [Compound 16, (1R,3S)-3-(5-{2-[1-(2-formyl-3-hydroxyphenyl)pyrazol-4-yl]acetamido}-2H-pyrazol-3-yl)cyclopentyl N-isopropylcarbamate; trifluoroacetic acid]",,,626,75.9,34561,formed a covalent complex with CDK2 protein,bound to the same binding pocket of CDK2 as the competitor molecule PF-06873600,585,34.3,
"CC(C)NC(=O)O[C@@H]1CC[C@H](c2cc(NC(=O)c3cc(-c4c(F)ccc(O)c4C=O)nn3C)n[nH]2)C1 [Compound 45, (1R,3S)-3-(3-(3-(6-fluoro-2-formyl-3-hydroxyphenyl)-1-methyl-1H-pyrazole-5-carboxamido)-1H-pyrazol-5-yl)cyclopentyl isopropylcarbamate]",114,,1580,6.81,34579,,,,2.8,
